Holding throughout (type): biochemical
Holding throughout (conditions): ATP 100 μM; Table^a 154

The target in one assay is JAK1 (Homo sapiens (Human), UniProt P23458). Description: Enzyme assay (Assay Example^a 1), JAK1.
For the next assay, the target named is Tyk2 (Homo sapiens (Human), UniProt P29597). Description: Enzyme assay (Assay Example^a 1), Tyk2.
In another assay the target is JAK3 (Homo sapiens (Human), UniProt P52333). Description: Enzyme assay (Assay Example^a 1), JAK3.
The next assay addresses JAK2 (Homo sapiens (Human), UniProt O60674). Description: Enzyme assay (Assay Example^a 1), JAK2.

Where only a bound is given, the exact number is not on record here.

Tyk2, sequence (P29597 whole entry): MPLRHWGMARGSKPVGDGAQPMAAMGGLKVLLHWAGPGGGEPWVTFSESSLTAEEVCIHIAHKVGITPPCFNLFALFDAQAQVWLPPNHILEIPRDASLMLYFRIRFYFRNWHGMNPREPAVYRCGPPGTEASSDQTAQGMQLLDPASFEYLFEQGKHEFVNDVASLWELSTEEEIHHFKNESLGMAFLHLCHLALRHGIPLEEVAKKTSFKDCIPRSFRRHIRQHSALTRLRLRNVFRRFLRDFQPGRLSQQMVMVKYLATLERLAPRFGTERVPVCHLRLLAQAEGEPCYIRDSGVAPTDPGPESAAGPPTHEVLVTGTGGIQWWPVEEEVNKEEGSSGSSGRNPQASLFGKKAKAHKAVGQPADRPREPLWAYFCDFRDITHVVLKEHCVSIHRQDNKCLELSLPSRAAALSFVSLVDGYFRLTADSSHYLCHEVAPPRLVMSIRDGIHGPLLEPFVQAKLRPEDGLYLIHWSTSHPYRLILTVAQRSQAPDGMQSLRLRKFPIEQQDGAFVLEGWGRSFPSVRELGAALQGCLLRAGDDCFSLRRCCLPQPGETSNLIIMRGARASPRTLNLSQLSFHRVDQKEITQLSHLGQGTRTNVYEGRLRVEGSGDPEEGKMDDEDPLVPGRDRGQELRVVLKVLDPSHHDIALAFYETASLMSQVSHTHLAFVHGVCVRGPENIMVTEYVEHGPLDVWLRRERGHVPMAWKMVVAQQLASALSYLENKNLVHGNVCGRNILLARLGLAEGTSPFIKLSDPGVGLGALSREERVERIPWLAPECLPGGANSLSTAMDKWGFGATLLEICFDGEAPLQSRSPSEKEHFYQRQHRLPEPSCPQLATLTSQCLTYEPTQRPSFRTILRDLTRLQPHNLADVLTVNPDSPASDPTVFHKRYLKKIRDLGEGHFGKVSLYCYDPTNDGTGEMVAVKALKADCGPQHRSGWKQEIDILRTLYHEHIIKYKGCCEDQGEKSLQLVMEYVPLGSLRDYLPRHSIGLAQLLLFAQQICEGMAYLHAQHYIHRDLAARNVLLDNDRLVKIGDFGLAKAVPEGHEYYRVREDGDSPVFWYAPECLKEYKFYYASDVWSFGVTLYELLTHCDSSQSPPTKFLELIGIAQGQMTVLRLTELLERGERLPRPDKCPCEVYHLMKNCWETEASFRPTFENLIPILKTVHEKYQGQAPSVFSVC
JAK3, sequence (P52333 whole entry): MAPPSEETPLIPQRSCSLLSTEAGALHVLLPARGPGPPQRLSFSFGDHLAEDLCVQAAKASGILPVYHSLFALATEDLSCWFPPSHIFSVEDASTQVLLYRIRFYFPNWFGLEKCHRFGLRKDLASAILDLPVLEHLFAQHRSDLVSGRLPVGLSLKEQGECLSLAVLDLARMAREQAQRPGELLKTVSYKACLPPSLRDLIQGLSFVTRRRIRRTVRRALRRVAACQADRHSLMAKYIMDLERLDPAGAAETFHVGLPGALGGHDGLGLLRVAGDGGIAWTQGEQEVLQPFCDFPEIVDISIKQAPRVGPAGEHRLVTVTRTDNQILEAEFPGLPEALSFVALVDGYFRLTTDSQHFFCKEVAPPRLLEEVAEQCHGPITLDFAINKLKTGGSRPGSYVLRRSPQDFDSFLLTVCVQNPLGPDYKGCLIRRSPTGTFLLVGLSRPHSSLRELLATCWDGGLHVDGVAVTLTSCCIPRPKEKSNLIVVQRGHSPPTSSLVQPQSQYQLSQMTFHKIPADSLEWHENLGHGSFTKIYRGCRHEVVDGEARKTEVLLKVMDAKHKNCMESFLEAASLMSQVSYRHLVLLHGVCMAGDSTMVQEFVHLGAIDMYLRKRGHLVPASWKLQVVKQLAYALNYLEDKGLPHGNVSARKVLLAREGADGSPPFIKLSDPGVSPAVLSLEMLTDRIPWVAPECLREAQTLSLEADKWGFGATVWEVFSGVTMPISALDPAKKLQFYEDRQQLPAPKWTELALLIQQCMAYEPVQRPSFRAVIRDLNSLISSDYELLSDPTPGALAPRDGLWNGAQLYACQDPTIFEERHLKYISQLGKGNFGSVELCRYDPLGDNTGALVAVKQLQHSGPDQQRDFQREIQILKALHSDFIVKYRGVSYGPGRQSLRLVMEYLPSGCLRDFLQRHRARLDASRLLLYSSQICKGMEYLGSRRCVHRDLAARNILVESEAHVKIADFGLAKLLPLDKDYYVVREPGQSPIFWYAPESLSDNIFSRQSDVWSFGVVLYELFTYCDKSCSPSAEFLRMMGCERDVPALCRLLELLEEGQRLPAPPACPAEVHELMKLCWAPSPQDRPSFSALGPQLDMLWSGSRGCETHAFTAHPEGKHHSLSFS

The IC50 is the concentration needed to halve the response being measured. On to `CS(=O)(=O)c1ccc(CN2CCC(c3nnn4cnc5[nH]ccc5c34)CC2)cc1` [compound 156], for which the IC50 on JAK1 stood at 0.0032 µM; against Tyk2 it was 0.65 µM; against JAK3 it was 0.52 µM; at JAK2, 0.042 µM.
Consider `Fc1cc(C(F)(F)F)ccc1CN1CCC(c2nnn3cnc4[nH]ccc4c23)CC1` [compound 157], for which the IC50 stood at 0.002 µM at JAK1, 0.31 µM at Tyk2, 0.24 µM at JAK3 and 0.02 µM against JAK2.
Take `Fc1cc(Cl)ccc1CN1CCC(c2nnn3cnc4[nH]ccc4c23)CC1` [compound 158]: the IC50 on JAK1 is 0.0007 µM; against Tyk2, 0.097 µM; at JAK3 it was 0.059 µM; against JAK2, 0.0044 µM.
As to `Fc1cc(CN2CCC(c3nnn4cnc5[nH]ccc5c34)CC2)ccc1Cl` [compound 159], the IC50 against JAK1 was 0.0016 µM; against Tyk2, 0.3 µM; at JAK3, 0.08 µM; on JAK2, 0.011 µM.
`Clc1cc(CN2CCC(c3nnn4cnc5[nH]ccc5c34)CC2)ccn1` [compound 160]: the IC50 against JAK1 was found to be 0.0053 µM; at Tyk2 it was 0.26 µM; at JAK3, 0.35 µM; at JAK2, 0.021 µM.
In the same order, the values of `Fc1cnccc1CN1CCC(c2nnn3cnc4[nH]ccc4c23)CC1` [compound 161, 1-{1-[(3-fluoropyridin-4-yl)methyl]piperidin-4-yl}-7H-pyrrolo[3,2-e][1,2,3]triazolo[1,5-c]pyrimidine] are 0.0034 µM, 0.14 µM, 0.31 µM and 0.011 µM.
For `Fc1ccc(CN2CCC(c3nnn4cnc5[nH]ccc5c34)CC2)nc1` [compound 162, 1-{1-[(5-fluoropyridin-2-yl)methyl]piperidin-4-yl}-7H-pyrrolo[3,2-e][1,2,3]triazolo[1,5-c]pyrimidine], the IC50 against JAK1 was 0.032 µM; at Tyk2 it was greater than 1 µM; against JAK3, 0.68 µM; against JAK2 it was 0.2 µM.
In the same order, the values of `Clc1cnccc1CN1CCC(c2nnn3cnc4[nH]ccc4c23)CC1` [compound 163, 1-{1-[(3-chloropyridin-4-yl)methyl]piperidin-4-yl}-7H-pyrrolo[3,2-e][1,2,3]triazolo[1,5-c]pyrimidine] are 0.01 µM, 0.31 µM, 0.41 µM and 0.034 µM.
For `Fc1ccc(CN2CCC(c3nnn4cnc5[nH]ccc5c34)CC2)c(F)c1` [compound 164, 1-[1-(2,4-difluorobenzyl)piperidin-4-yl]-7H-pyrrolo[3,2-e][1,2,3]triazolo[1,5-c]pyrimidine], the IC50 against JAK1 amounted to 0.0058 µM; at Tyk2 it was 0.29 µM; against JAK3, 0.23 µM; against JAK2, 0.03 µM.
As to `Fc1ccc(CN2CCC(c3nnn4cnc5[nH]ccc5c34)CC2)c(Cl)c1` [compound 165, 1-[1-(2-chloro-4-fluorobenzyl)piperidin-4-yl]-7H-pyrrolo[3,2-e][1,2,3]triazolo[1,5-c]pyrimidine], the IC50 turned out to be 0.0044 µM on JAK1, 0.34 µM against Tyk2, 0.1 µM on JAK3 and 0.02 µM on JAK2.
For the molecule `Fc1ccc(CN2CCC(c3nnn4cnc5[nH]ccc5c34)CC2)cc1F` [compound 166, 1-[1-(3,4-difluorobenzyl)piperidin-4-yl]-7H-pyrrolo[3,2-e][1,2,3]triazolo[1,5-c]pyrimidine], the IC50 is 0.0053 µM on JAK1, 0.49 µM at Tyk2, 0.17 µM on JAK3 and 0.023 µM against JAK2.
With `Fc1cc(CN2CCC(c3nnn4cnc5[nH]ccc5c34)CC2)ccc1C(F)(F)F` [compound 167, 1-{1-[3-fluoro-4-(trifluoromethyl)benzyl]piperidin-4-yl}-7H-pyrrolo[3,2-e][1,2,3]triazolo[1,5-c]pyrimidine], the IC50 against JAK1 is 0.0031 µM; on Tyk2 it was 0.98 µM; against JAK3 it was 0.17 µM; on JAK2 it was 0.03 µM.
As for `OCCOc1ccc(CN2CCC(c3nnn4cnc5[nH]ccc5c34)CC2)cc1` [compound 168, 2-(4-{[4-(7H-pyrrolo[3,2-e][1,2,3]triazolo[1,5-c]pyrimidin-1-yl)piperidin-1-yl]methyl}phenoxy)ethanol], the IC50 against JAK1 is 0.084 µM; on Tyk2, greater than 1 µM; on JAK3 it was greater than 1 µM; on JAK2, 0.71 µM.
`FC(F)C(F)(F)Oc1ccc(CN2CCC(c3nnn4cnc5[nH]ccc5c34)CC2)cc1` [compound 169, 1-{1-[4-(1,1,2,2-tetrafluoroethoxy)benzyl]piperidin-4-yl}-7H-pyrrolo[3,2-e][1,2,3]triazolo[1,5-c]pyrimidine]: the IC50 at JAK1 is 0.005 µM; on Tyk2 it was greater than 1 µM; on JAK3 it was 0.58 µM; at JAK2, 0.052 µM.
Turning to `CC(C)(C)OC(=O)NCCN1CCC(c2nnn3cnc4[nH]ccc4c23)CC1` [compound 171, tert-butyl {2-[4-(7H-pyrrolo[3,2-e][1,2,3]triazolo[1,5-c]pyrimidin-1-yl)piperidin-1-yl]ethyl}carbamate], the IC50 against JAK1 was 0.1 µM; against Tyk2 it was greater than 1 µM; on JAK3, greater than 1 µM; at JAK2, 0.94 µM.
With `O=S(=O)(c1ccc(NC[C@H]2CC[C@H](c3nnn4cnc5[nH]ccc5c34)CC2)cc1)C(F)(F)F` [compound 173, N-{[trans-4-(7H-pyrrolo[3,2-e][1,2,3]triazolo[1,5-c]pyrimidin-1-yl)cyclohexyl]methyl}-4-[(trifluoromethyl)sulfonyl]aniline], the 50% inhibitory concentration (IC50) against JAK1 is 0.034 µM; on Tyk2 it was 0.46 µM; against JAK3, greater than 1 µM; on JAK2, 0.26 µM.
Consider `c1ccc(CCNC[C@H]2CC[C@H](c3nnn4cnc5[nH]ccc5c34)CC2)cc1` [compound 174, N-{[trans-4-(7H-pyrrolo[3,2-e][1,2,3]triazolo[1,5-c]pyrimidin-1-yl)cyclohexyl]methyl}-2-phenylethanamine], for which the IC50 at JAK1 is 0.0057 µM; at Tyk2, 0.099 µM; against JAK3, 0.61 µM; against JAK2, 0.072 µM.
In the case of `FC(F)(F)c1nc2cc(NC[C@H]3CC[C@H](c4nnn5cnc6[nH]ccc6c45)CC3)ccc2[nH]1` [compound 175, N-{[trans-4-(7H-pyrrolo[3,2-e][1,2,3]triazolo[1,5-c]pyrimidin-1-yl)cyclohexyl]methyl}-2-(trifluoromethyl)-1H-benzo[d]imidazol-5-amine], the IC50 against JAK1 worked out at 0.0056 µM; against Tyk2, 0.045 µM; against JAK3, 0.34 µM; against JAK2 it was 0.0074 µM.
`Clc1ccc(NC[C@H]2CC[C@H](c3nnn4cnc5[nH]ccc5c34)CC2)cc1` [compound 176, N-{[trans-4-(7H-pyrrolo[3,2-e][1,2,3]triazolo[1,5-c]pyrimidin-1-yl)cyclohexyl]methyl}-4-chloroaniline]: the IC50 against JAK1 is 0.034 µM; against Tyk2 it was greater than 1 µM; against JAK3, greater than 1 µM; against JAK2, 0.19 µM.
In the case of `Clc1ccc(CNC[C@H]2CC[C@H](c3nnn4cnc5[nH]ccc5c34)CC2)cc1` [compound 177, 1-[trans-4-(7H-pyrrolo[3,2-e][1,2,3]triazolo[1,5-c]pyrimidin-1-yl)cyclohexyl]-N-(4-chlorobenzyl)methanamine], the IC50 amounted to 0.0029 µM against JAK1, 0.0028 µM on Tyk2, 0.2 µM against JAK3 and 0.031 µM against JAK2.
In the case of `Clc1ccc(CCNC[C@H]2CC[C@H](c3nnn4cnc5[nH]ccc5c34)CC2)cc1` [compound 178, N-{[trans-4-(7H-pyrrolo[3,2-e][1,2,3]triazolo[1,5-c]pyrimidin-1-yl)cyclohexyl]methyl}-2-(4-chlorophenyl)ethanamine], the IC50 against JAK1 turned out to be 0.0026 µM; at Tyk2 it was 0.053 µM; on JAK3, 0.17 µM; against JAK2, 0.024 µM.
`Fc1ccc2c(c1)CCN2C[C@H]1CC[C@H](c2nnn3cnc4[nH]ccc4c23)CC1` [compound 179, 1-[trans-4-((5-fluoroindolin-1-yl)methyl)cyclohexyl]-7H-pyrrolo[3,2-e][1,2,3]triazolo[1,5-c]pyrimidine]: the 50% inhibitory concentration (IC50) against JAK1 was 0.028 µM; against Tyk2, greater than 1 µM; against JAK3 it was greater than 1 µM; on JAK2, 0.094 µM.
Turning to `N#CCCN(CCC#N)C[C@H]1CC[C@H](c2nnn3cnc4[nH]ccc4c23)CC1` [compound 180, 3,3′-({[trans-4-(7H-pyrrolo[3,2-e][1,2,3]triazolo[1,5-c]pyrimidin-1-yl)cyclohexyl]methyl}azanediyl)dipropanenitrile], the IC50 on JAK1 is 0.0013 µM; against Tyk2, 0.022 µM; at JAK3, 0.03 µM; on JAK2 it was 0.0019 µM.
In the case of `CN(C)[C@H]1CCN(C[C@H]2CC[C@H](c3nnn4cnc5[nH]ccc5c34)CC2)C1` [compound 181, (S)-1-{[trans-4-(7H-pyrrolo[3,2-e][1,2,3]triazolo[1,5-c]pyrimidin-1-yl)cyclohexyl]methyl}-N,N-dimethylpyrrolidin-3-amine], the IC50 against JAK1 was 0.024 µM; at Tyk2, 0.49 µM; against JAK3, greater than 1 µM; against JAK2, 0.13 µM.
With `Cc1ccc(CNC[C@H]2CC[C@H](c3nnn4cnc5[nH]ccc5c34)CC2)o1` [compound 182, 1-[trans-4-(7H-pyrrolo[3,2-e][1,2,3]triazolo[1,5-c]pyrimidin-1-yl)cyclohexyl]-N-[(5-methylfuran-2-yl)methyl]methanamine], the IC50 came out at 0.0054 µM at JAK1, 0.016 µM against Tyk2, 0.28 µM on JAK3 and 0.039 µM on JAK2.
Take `Cc1cnc(CNC[C@H]2CC[C@H](c3nnn4cnc5[nH]ccc5c34)CC2)cn1` [compound 183, 1-[trans-4-(7H-pyrrolo[3,2-e][1,2,3]triazolo[1,5-c]pyrimidin-1-yl)cyclohexyl]-N-[(5-methylpyrazin-2-yl)methyl]methanamine]: the IC50 was 0.0061 µM against JAK1, 0.041 µM against Tyk2, 0.8 µM against JAK3 and 0.055 µM at JAK2.

These data come from patent publication US9216999B2, “Substituted pyrrolo[2,3-h][1,6]naphthyridines and compositions thereof as JAK inhibitors” (priority 2011, dated 2015).
